Assays:
human H3 receptor = target: T1, human H3 receptor (Homo sapiens, UniProt Q9Y5N1); assay: Human H3 radioligand binding ([3H]-N-alpha-methylhistamine, SPA); details: membranes of CHO cells expressing human H3
T1 construct: expressed in transfected cells
Outline: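 Membranes from H3-expressing cells (10 μg protein/well) in 50 mM Tris HCl pH 7.4, 5 mM MgCl2, 0.1% BSA with ~1 nM [3H]-N-alpha-methylhistamine and compound (0.01 nM–30 μM), SPA beads, 4 h, room temperature, dark. Non-specific binding defined with 10 μM clobenpropit; bound radioligand read by scintillation counting.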

[1] = target: T2, rat histamine H3 receptor (Rattus norvegicus, UniProt Q9QYN8); assay: Rat H3 radioligand binding ([3H]-N-alpha-methylhistamine, SPA); details: membranes of CHO-A3 cells expressing rat H3; [3H]-N-alpha-methylhistamine; read-out: Rat H3 Ki
T2 construct: encoding the entire 445-amino-acid rat histamine H3 receptor; expressed in transfected cells
Outline: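 Membranes from CHO-A3 cells stably expressing full-length rat H3 receptor (445 aa) incubated with ~1 nM [3H]-N-alpha-methylhistamine and compound (0.01 nM–30 μM) in 50 mM Tris HCl pH 7.4, 5 mM MgCl2, 0.1% BSA, 4 h, room temperature; SPA bead read-out. Non-specific binding defined with 10 μM clobenpropit.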

T1 sequence (Q9Y5N1 whole entry): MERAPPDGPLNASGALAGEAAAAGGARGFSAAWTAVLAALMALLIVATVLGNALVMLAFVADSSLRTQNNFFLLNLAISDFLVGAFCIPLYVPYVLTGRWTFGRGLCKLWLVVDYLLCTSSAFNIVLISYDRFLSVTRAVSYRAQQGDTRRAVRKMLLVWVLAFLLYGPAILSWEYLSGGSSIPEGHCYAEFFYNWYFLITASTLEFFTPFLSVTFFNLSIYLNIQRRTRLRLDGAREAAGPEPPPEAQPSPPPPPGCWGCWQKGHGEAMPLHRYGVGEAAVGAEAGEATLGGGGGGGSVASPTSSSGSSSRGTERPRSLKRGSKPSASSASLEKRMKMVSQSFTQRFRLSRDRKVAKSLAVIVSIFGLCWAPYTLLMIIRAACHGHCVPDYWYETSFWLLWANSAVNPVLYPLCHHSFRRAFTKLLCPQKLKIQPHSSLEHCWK
T2 sequence (Q9QYN8 whole entry): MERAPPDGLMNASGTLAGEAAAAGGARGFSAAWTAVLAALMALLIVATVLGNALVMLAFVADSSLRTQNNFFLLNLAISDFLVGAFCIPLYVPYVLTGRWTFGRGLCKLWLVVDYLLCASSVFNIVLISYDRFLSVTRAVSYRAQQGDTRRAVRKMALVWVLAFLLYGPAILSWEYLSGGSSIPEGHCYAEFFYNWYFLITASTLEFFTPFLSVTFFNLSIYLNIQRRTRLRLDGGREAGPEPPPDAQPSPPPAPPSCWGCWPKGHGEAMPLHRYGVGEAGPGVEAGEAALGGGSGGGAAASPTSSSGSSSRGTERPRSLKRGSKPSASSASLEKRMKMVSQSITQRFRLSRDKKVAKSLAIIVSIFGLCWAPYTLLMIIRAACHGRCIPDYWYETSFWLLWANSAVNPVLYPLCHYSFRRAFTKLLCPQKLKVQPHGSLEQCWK

Ki (human H3 receptor) [nM] | Ki [1] [nM] | melting point | Compound
0.1 to 100 | 0.1 to 100 | 230 to 232 °C | C[C@@H]1CCCN1CCCOc1ccc(C(=O)CN2CCN(C(=O)C3CCCCC3)CC2)cc1 [Example 93, 2-(4-Cyclohexanecarbonyl-piperazin-1-yl)-1-{4-[3-((R)-2-methyl-pyrrolidin-1-yl)-propoxy]-phenyl}-ethanone]
0.1 to 100 | 101 to 500 | 130 to 143 °C | C[C@@H]1CCCN1CCCOc1ccc(C(=O)CN2CCC(F)(F)CC2)cc1Cl [Example 134, 1-{3-Chloro-4-[3-((R)-2-methyl-pyrrolidin-1-yl)-propoxy]-phenyl}-2-(4,4-difluoro-piperidin-1-yl)-ethanone]
0.1 to 100 | 0.1 to 100 | 140 to 145 °C | C[C@@H]1CCCN1CCCOc1ccc(C(=O)CN2CCN(c3ccc(F)cc3)CC2)cc1 [Example 94, 2-[4-(4-Fluoro-phenyl)-piperazin-1-yl]-1-{4-[3-((R)-2-methyl-pyrrolidin-1-yl)-propoxy]-phenyl}-ethanone]
0.1 to 100 | 101 to 500 | 168 °C | C[C@@H]1CCCN1CCCOc1c(Cl)cc(C(=O)CN2CCN(C(=O)C3CCCCC3)CC2)cc1Cl [Example 99, 2-(4-Cyclohexanecarbonyl-piperazin-1-yl)-1-{3,5-dichloro-4-[3-((R)-2-methyl-pyrrolidin-1-yl)-propoxy]-phenyl}-ethanone]
0.1 to 100 | 0.1 to 100 | 120 to 126 °C | C[C@@H]1CCCN1CCCOc1ccc(C(=O)CN2CCN(C(=O)N(C)C)CC2)cc1 [Example 79, 4-(2-{4-[3-((R)-2-Methyl-pyrrolidin-1-yl)-propoxy]-phenyl}-2-oxo-ethyl)-piperazine-1-carboxylic acid dimethylamide]
0.1 to 100 | 0.1 to 100 | 233 to 236 °C | C[C@@H]1CCCN1CCCOc1ccc(C(=O)CN2CCN(C(=O)c3ccc(Cl)cc3)CC2)cc1 [Example 100, 2-[4-(4-Chloro-benzoyl)-piperazin-1-yl]-1-{4-[3-((R)-2-methyl-pyrrolidin-1-yl)-propoxy]-phenyl}-ethanone]
0.1 to 100 | 0.1 to 100 | 108 to 120 °C | C[C@@H]1CCCN1CCCOc1ccc(C(=O)CN2CCCC(C)(C)C2)cc1 [Example 55, 2-(3,3-Dimethyl-piperidin-1-yl)-1-{4-[3-((R)-2-methyl-pyrrolidin-1-yl)-propoxy]-phenyl}-ethanone]
0.1 to 100 | > 1000 | 102 °C | C[C@@H]1CCCN1CCCOc1c(Cl)cc(C(=O)CN2CCC(F)(F)CC2)cc1Cl [Example 98, 1-{3,5-Dichloro-4-[3-((R)-2-methyl-pyrrolidin-1-yl)-propoxy]-phenyl}-2-(4,4-difluoro-piperidin-1-yl)-ethanone]
> 1000 | > 1000 | 246 to 248 °C | CS(=O)(=O)N1CCN(CCCOc2ccc(C(=O)CN3CCOCC3)cc2)CC1 [Example 59, 1-{4-[3-(4-Methanesulfonyl-piperazin-1-yl)-propoxy]-phenyl}-2-morpholin-4-yl-ethanone]
> 1000 | > 1000 | 230 °C | O=C1CN(CCCOc2ccc(C(=O)CN3CCOCC3)cc2)CCN1 [Example 57, 4-{3-[4-(2-Morpholin-4-yl-acetyl)-phenoxy]-propyl}-piperazin-2-one]
0.1 to 100 | 0.1 to 100 | 221 to 224 °C | C[C@@H]1CCCN1CCCOc1ccc(C(=O)CN2CCN(C(=O)c3cccn3C)CC2)cc1 [Example 84, 2-[4-(1-Methyl-1H-pyrrole-2-carbonyl)-piperazin-1-yl]-1-{4-[3-((R)-2-methyl-pyrrolidin-1-yl)-propoxy]-phenyl}-ethanone]
101 to 500 | 101 to 500 | 115 °C | CC(=O)N1CCN(CC(=O)c2cc(Cl)c(OCCCN3CCC[C@H]3C)c(Cl)c2)CC1 [Example 110, 2-(4-Acetyl-piperazin-1-yl)-1-{3,5-dichloro-4-[3-((R)-2-methyl-pyrrolidin-1-yl)-propoxy]-phenyl}-ethanone]
0.1 to 100 | 0.1 to 100 | 120 to 126 °C | C[C@@H]1CCCN1CCCOc1ccc(C(=O)CN2CCN(S(C)(=O)=O)CC2)cc1 [Example 66, 2-(4-Methanesulfonyl-piperazin-1-yl)-1-{4-[3-((R)-2-methyl-pyrrolidin-1-yl)-propoxy]-phenyl}-ethanone]
0.1 to 100 | 101 to 500 | 160 to 165 °C (dec.) | CC(C)N1CCC(Oc2ccc(C(=O)CN3CCCC(F)(F)C3)cc2)CC1 [Example 53, 2-(3,3-Difluoro-piperidin-1-yl)-1-[4-(1-isopropyl-piperidin-4-yloxy)-phenyl]-ethanone]
0.1 to 100 | 101 to 500 | 110 to 120 °C | Cc1cc(C(=O)CN2CCN(C(=O)c3ccccc3)CC2)cc(C)c1OCCCN1CCC[C@H]1C [Example 106, 2-(4-Benzoyl-piperazin-1-yl)-1-{3,5-dimethyl-4-[3-((R)-2-methyl-pyrrolidin-1-yl)-propoxy]-phenyl}-ethanone]
0.1 to 100 | 0.1 to 100 | 137 to 150 °C | C[C@@H]1CCCN1CCCOc1ccc(C(=O)CN2CCN(C(=O)c3cccc(Cl)c3Cl)CC2)cc1 [Example 157, 2-[4-(2,3-Dichloro-benzoyl)-piperazin-1-yl]-1-{4-[3-((R)-2-methyl-pyrrolidin-1-yl)-propoxy]-phenyl}-ethanone]
0.1 to 100 | 0.1 to 100 | 115 to 117 °C | C[C@@H]1CCCN1CCCOc1ccc(C(=O)CN2CCN(C(=O)c3ccc(F)cc3F)CC2)cc1 [Example 126, 2-[4-(2,4-Difluoro-benzoyl)-piperazin-1-yl]-1-{4-[3-((R)-2-methyl-pyrrolidin-1-yl)-propoxy]-phenyl}-ethanone]
0.1 to 100 | 101 to 500 | 206 to 215 °C | Cc1cc(OCCCN2CCCCC2)ccc1C(=O)CN1CCOCC1 [Example 72, 1-[2-Methyl-4-(3-piperidin-1-yl-propoxy)-phenyl]-2-morpholin-4-yl-ethanone]
101 to 500 | > 1000 | 122 to 135 °C | O=C(CN1CCC(F)(F)CC1)c1ccc(OCCCN2CCCCC2)c(Cl)c1 [Example 147, 1-[3-Chloro-4-(3-piperidin-1-yl-propoxy)-phenyl]-2-(4,4-difluoro-piperidin-1-yl)-ethanone]
0.1 to 100 | 101 to 500 | 236 to 243 °C | O=C(CN1CCOCC1)c1ccc(OCCCN2CCCCC2)cc1 [Example 78, 2-Morpholin-4-yl-1-[4-(3-piperidin-1-yl-propoxy)-phenyl]-ethanone]
0.1 to 100 | 0.1 to 100 | 208 to 210 °C | COC(=O)N1CCN(CC(=O)c2ccc(OCCCN3CCC[C@H]3C)cc2)CC1 [Example 82, 4-(2-{4-[3-((R)-2-Methyl-pyrrolidin-1-yl)-propoxy]-phenyl}-2-oxo-ethyl)-piperazine-1-carboxylic acid methyl ester]
0.1 to 100 | 0.1 to 100 | 137 to 145 °C | C[C@@H]1CCCN1CCCOc1ccc(C(=O)CN2CCNC(=O)C2)cc1 [Example 85, 4-(2-{4-[3-((R)-2-Methyl-pyrrolidin-1-yl)-propoxy]-phenyl}-2-oxo-ethyl)-piperazin-2-one]
0.1 to 100 | 0.1 to 100 | 239 to 242 °C | C[C@@H]1CCCN1CCCOc1ccc(C(=O)CN2CCN(c3ccccn3)CC2)cc1 [Example 116, 1-{4-[3-((R)-2-Methyl-pyrrolidin-1-yl)-propoxy]-phenyl}-2-(4-pyridin-2-yl-piperazin-1-yl)-ethanone]
0.1 to 100 | 0.1 to 100 | 185 to 190 °C | C[C@@H]1CCCN1CCCOc1ccc(C(=O)CN2CCN(C(=O)C3CCCO3)CC2)cc1 (stereo partly drawn) [Example 83, 1-{4-[3-((R)-2-Methyl-pyrrolidin-1-yl)-propoxy]-phenyl}-2-[4-(tetrahydro-furan-2-carbonyl)-piperazin-1-yl]-ethanone]
0.1 to 100 | 0.1 to 100 | 227 to 230 °C | C[C@@H]1CCCN1CCCOc1ccc(C(=O)CN2CCN(C(=O)c3ccc(C(F)(F)F)cc3)CC2)cc1 [Example 92, 1-{4-[3-((R)-2-Methyl-pyrrolidin-1-yl)-propoxy]-phenyl}-2-[4-(4-trifluoromethyl-benzoyl)-piperazin-1-yl]-ethanone]
0.1 to 100 | 0.1 to 100 | 90 to 96 °C | C[C@@H]1CCCN1CCCOc1ccc(C(=O)CN2CCCCc3ccccc32)cc1 [Example 114, 1-{4-[3-((R)-2-Methyl-pyrrolidin-1-yl)-propoxy]-phenyl}-2-(2,3,4,5-tetrahydro-benzo[b]azepin-1-yl)-ethanone]
0.1 to 100 | 0.1 to 100 | 124 to 135 °C | C[C@@H]1CCCN1CCCOc1ccc(C(=O)CN2CCN(S(=O)(=O)c3ccccc3)CC2)cc1 [Example 69, 2-(4-Benzenesulfonyl-piperazin-1-yl)-1-{4-[3-((R)-2-methyl-pyrrolidin-1-yl)-propoxy]-phenyl}-ethanone]
0.1 to 100 | 101 to 500 | 177 °C | C[C@@H]1CCCN1CCCOc1c(Cl)cc(C(=O)CN2CCN(c3ncccn3)CC2)cc1Cl [Example 111, 1-{3,5-Dichloro-4-[3-((R)-2-methyl-pyrrolidin-1-yl)-propoxy]-phenyl}-2-(4-pyrimidin-2-yl-piperazin-1-yl)-ethanone]
